Experimental data taken from patent publication US11840560B2, “Prodrugs and uses thereof” (Novo Nordisk A/S, priority 2022, dated 2023).
*1 amine or outer side, *2 acyl side, *3 side chain or, on linkers, in order; H or OH if unused. Where a SMILES comes first, the peptide text is derived from it. Side-chain parts run from the residue outwards. [ ]: non-standard residue; d: D form. The star is where a group is joined. X1 = O=C(O)CCCCCCCCCCCCCCC(=O)N[C@@H](CCC(=O)NCCCC[C@H](NC(=O)CC[C@H](NC(=O)CCCCCCCCCCCCCCC(=O)O)C(=O)O)C(=O)*)C(=O)O; N(2-Aminoethyl)Gly = O=C(CN(CCN[*:3])[*:1])[*:2]; C18 diacid = O=C(O)CCCCCCCCCCCCCCCCC(=O)*; C16 diacid = O=C(O)CCCCCCCCCCCCCCC(=O)*; γGlu = O=C(O)[C@H](CCC(=O)[*:2])N[*:1]; εLys = N[C@@H](CCCCN[*:1])C(=O)[*:2]; AEEA = NCCOCCOCC(=O)O; Aib = CC(C)(N)C(=O)O; Sar = CNCC(=O)O

How the values were obtained:
[1] = in vivo; set-up: species or system beagle dogs; settings: dog, po, 300 mg; for Tmax / half-life: male, beagle
Protocol: The purpose of this method is to determine the terminal half-life and plasma exposure in vivo of the compounds of the present invention after p.o. administration to beagle dogs, i.e. the terminal half-life and concentration of test substance that reaches circulation with time. This is done in a pharmacokinetic (PK) study, where these parameters of the compound in question are determined. By terminal half-life is generally meant the period of time it takes to halve a certain plasma concentration, measured after the initial distribution phase.
Tablet compositions comprising the test compounds obtained from Example 1 and SNAC (sodium N-(8-(2-hydroxybenzoyl)amino)caprylate) were prepared according to methods known to the person skilled in the art by mixing test substance with roller compacted SNAC and magnesium stearate as e.g. described in WO 2019/149880. Each tablet was comprised of 7.7 mg magnesium stearate, 2-4 mg of each compound tested, and 300 mg SNAC.
Male beagle dogs, 1-7 years of age and weighing 9-17 kg during the study period, were included in the study. The dogs were dosed in a fasting state. The dogs were group housed in pens (12 hours light: 12 hours dark), and fed individually and restrictedly once daily with Royal Canin Medium Adult dog food (Royal Canin Products, China Branch, or Brogaarden A/S, Denmark). The dogs were used for repeated PK studies with a suitable wash-out period between successive dosing. An appropriate acclimatisation period was given prior to initiation of the first PK study. All handling, dosing, and blood sampling of the animals were performed by trained and skilled staff. Before the studies, the dogs were fasted overnight and from 0 to 4 hours after dosing. The dogs were restricted to water 1 hour before dosing until 4 hours after dosing, but otherwise had adlibitum access to water during the whole period.
The compositions were administered by a single oral dosing to the dogs in groups of 6-8 dogs. The tablets were administered in the following manner: 10 min prior to tablet administration, the dogs may be dosed subcutaneously with approximately 3 nmol/kg of SEQ ID NO.: 7 ([…]), then tablets were placed in the back of the mouth of the dog to prevent chewing. The mouth was then closed, and 10 mL of tap water was given by syringe or gavage to facilitate swallowing of the tablet.
One blood sample was drawn before dosing, and additional samples were drawn at predefined time points after dosing, such as for up to 600 hours, to adequately cover the full plasma concentration-time absorption profile of the test substance. For each blood sample time point, approximately 0.8 mL of whole blood was collected in a 1.5 mL EDTA-coated tube, which was gently turned to mix the sample with EDTA. Blood samples were collected in EDTA buffer (8 mM) and then centrifuged at 4° C. and 2000 g for 10 minutes. Plasma was pipetted into Micronic tubes on dry ice, and kept at −20° C. or lower until analysis. Blood samples were taken as appropriate, for example from a venflon in the cephalic vein in the front leg for the first 2 hours and then with syringe from the jugular vein for the rest of the time points. The first few drops were allowed to drain from the venflon to avoid heparin saline from the venflon in the sample. All blood samples were collected into test tubes containing EDTA for stabilisation and kept on ice until centrifugation. Plasma was separated from whole blood by centrifugation and the plasma was stored at −20° C. or lower until analysis.
The plasma was analysed for test substance using LC-MS (Liquid Chromatography-Mass Spectrometry) as known to the person skilled in the art. […]

[2] = physchem; type: physicochemical; settings: buffer, pH 7.4
Protocol: The assay was performed to investigate the conversion half-life of prodrug to drug of the prodrugs of the invention. The conversion half-life was investigated in vitro at pH 7.4 upon incubation at 37° C.
Test compounds were dissolved to a concentration of 100 μM in phosphate-buffered saline (140 mM NaCl, 2.07 mM KCl, 8.05 mM Na2HPO4, 1.96 mM KH2PO4, pH 7.4). Solution pH was measured after dissolution and adjusted to pH 7.4 with aqueous NaOH if necessary. The solution was filtered through a 0.22 μm syringe filter, then incubated in a water bath at 37° C. Aliquots were withdrawn at defined timepoints, e.g. every 24-72 hours, for LCMS analysis.
LCMS analysis was performed using the procedure defined in LCMS_A above. The AUC of the prodrug, active drug, and DKP were determined using UV detection at 214 nm, and the ratio of prodrug AUC over total AUC of prodrug plus active drug plus DKP was calculated. The negative natural logarithm of this ratio was plotted over time, and a linear regression of this relationship was then performed.
The prodrug to drug conversion half-life of the compounds of the invention was measured as described in General Methods for Measuring Conversion Half-life.

[3] = in vivo; set-up: species or system Göttingen minipigs; settings: female, Göttingen, minipig, iv
Protocol: The purpose of this method is to determine the half-life in vivo of the derivatives of the present invention after i.v. administration to minipigs, i.e. the prolongation of their time in the body and thereby their time of action. This is done in a pharmacokinetic (PK) study, where the terminal half-life of the derivative in question is determined. By terminal half-life is generally meant the period of time it takes to halve a certain plasma concentration, measured after the initial distribution phase.
Female Göttingen minipigs were obtained from Ellegaard Göttingen Minipigs (Dalmose, Denmark) approximately 7-14 months of age and weighing from approximately 16-35 kg were used in the studies. The minipigs were housed individually and fed restrictedly once daily with SDS minipig diet (Special Diets Services, Essex, UK).
After at 3 weeks of acclimatisation two permanent central venous catheters were implanted in vena cava caudalis in each animal. The animals were allowed 1 week recovery after the surgery, and were then used for repeated pharmacokinetic studies with a suitable wash-out period between successive derivative dosing.
The animals were fasted for approximately 18 hours before dosing and from 0 to 4 hours after dosing but had ad libitum access to water during the whole period.
The sodium salts of compounds of Examples 1 were prepared using method SX_A under General Methods for preparation of the compounds of the invention. The resulting sodium salts were dissolved to a concentration of 50-300 nmol/mL in a buffer containing 0.007% polysorbate 20, 50 mM sodium phosphate, 70 mM sodium chloride, pH 7.4. Intravenous injections (the volume corresponding to usually 1-20 nmol/kg, for example 0.02-0.05 mL/kg) of the compounds were given through one catheter, and blood was sampled at predefined time points for up to 21 days post dosing (preferably through the other catheter). Blood samples (for example 0.8 mL) were collected in 8 mM EDTA buffer and then centrifuged at 4° C. and 1942 g for 10 minutes.
Plasma was pipetted into Micronic tubes on dry ice and kept at −20° C. until analysed for plasma concentration of the compounds using ELISA, or a similar antibody-based assay, or LCMS. Individual plasma concentration-time profiles were analysed by a non-compartmental model in Phoenix WinNonLin ver. 6.4. (Pharsight Inc., Mountain View, CA, USA), and the resulting terminal half-lives (harmonic mean) determined.
The terminal half-lives and/or the observed terminal half-lives, measured as described herein in General Methods for Measuring Terminal Half-Life in Minipigs are shown in Table 7. […] This provides evidence that conversion of prodrug to parent compound is occurring in vivo. The terminal half-life of the prodrug may be faster or slower than the corresponding parent compound due to the contribution of conversion on the terminal half-life of the prodrug.

Row | Compound | AUC/Dose [1] [kg·h/L] | Cmax/Dose [1] [kg/L] | Tmax [1] [h] | half-life [1] [h] | half-life at 100 μM [2] [h] | half-life [3] [h]
1 | CC[C@H](C)[C@H](NC(=O)[C@H](CC(C)C)NC(=O)[C@H](Cc1c[nH]c2ccccc12)NC(=O)[C@H](CCC(N)=O)NC(=O)[C@@H](NC(=O)[C@H](Cc1ccccc1)NC(=O)[C@H](C)NC(=O)[C@H](CCCCNC(=O)COCCOCCNC(=O)COCCOCCNC(=O)CC[C@H](NC(=O)CCCCCCCCCCCCCCCCCCC(=O)O)C(=O)O)NC(=O)[C@H](CCC(N)=O)NC(=O)[C@H](C)NC(=O)[C@@H](NC(=O)[C@H](CCCCN)NC(=O)[C@H](CC(=O)O)NC(=O)[C@H](CC(C)C)NC(=O)C(C)(C)NC(=O)[C@@H](NC(=O)[C@H](CO)NC(=O)[C@H](Cc1ccc(O)cc1)NC(=O)[C@H](CC(=O)O)NC(=O)[C@H](CO)NC(=O)[C@@H](NC(=O)[C@H](Cc1ccccc1)NC(=O)[C@@H](NC(=O)CNC(=O)[C@H](CCC(=O)O)NC(=O)C(C)(C)NC(=O)[C@H](Cc1ccc(O)cc1)NC(=O)CN(C)C(=O)[C@@H](N)CCCCNC(=O)CC[C@H](NC(=O)CCCCCCCCCCCCCCC(=O)O)C(=O)O)[C@@H](C)O)[C@@H](C)O)[C@@H](C)CC)[C@@H](C)CC)C(C)C)C(=O)N[C@@H](C)C(=O)NCC(=O)NCC(=O)N1CCC[C@H]1C(=O)N[C@@H](CO)C(=O)N[C@@H](CO)C(=O)NCC(=O)N[C@@H](C)C(=O)N1CCC[C@H]1C(=O)N1CCC[C@H]1C(=O)N1CCC[C@H]1C(=O)N[C@@H](CO)C(N)=O [Compound 18] | 13.3 | 0.15 | 4 | 88 | 101 | 
2 | CC[C@H](C)[C@H](NC(=O)[C@H](Cc1ccccc1)NC(=O)[C@H](CCC(=O)O)NC(=O)[C@H](CCCNC(=N)N)NC(=O)[C@H](C)NC(=O)[C@H](C)NC(=O)[C@H](CCC(N)=O)NC(=O)[C@H](CCC(=O)O)NC(=O)[C@H](CCC(=O)O)NC(=O)[C@H](CC(C)C)NC(=O)[C@H](CC(C)C)NC(=O)[C@@H](NC(=O)[C@H](CO)NC(=O)[C@H](Cc1ccc(O)cc1)NC(=O)[C@H](CC(=O)O)NC(=O)[C@H](CO)NC(=O)[C@@H](NC(=O)[C@H](Cc1ccccc1)NC(=O)[C@@H](NC(=O)CNC(=O)[C@H](CCC(=O)O)NC(=O)C(C)(C)NC(=O)[C@@H](N)Cc1ccc(O)cc1)[C@@H](C)O)[C@@H](C)O)[C@@H](C)CC)C(=O)N[C@@H](CCC(=O)O)C(=O)N[C@@H](Cc1c[nH]c2ccccc12)C(=O)N[C@@H](CC(C)C)C(=O)N[C@@H](CC(C)C)C(=O)N[C@@H](C)C(=O)NCC(=O)NCC(=O)N1CCC[C@H]1C(=O)N[C@@H](CO)C(=O)N[C@@H](CCCCNC(=O)[C@@H](N)CCCCNC(=O)[C@@H](N)CCCCNC(=O)CC[C@H](NC(=O)CCCCCCCCCCCCCCC(=O)O)C(=O)O)C(=O)NCC(=O)N[C@@H](C)C(=O)N1CCC[C@H]1C(=O)N1CCC[C@H]1C(=O)N1CCC[C@H]1C(=O)N[C@@H](CO)C(=O)O [Parent compound 2] (H-Y[Aib]EGTFTSDYSILLEEQAAREFIEWLLAGGPSK([εLys-εLys-γGlu-C16 diacid])GAPPPS-OH) |  |  |  |  |  | 104
3 | H-G[N(2-Aminoethyl)Gly]([γGlu-C16 diacid])Y[Aib]EGTFTSDYSILLEEQAAREFIEWLLAGGPSK([AEEA-AEEA-γGlu-C16 diacid])GAPPPS-OH [Compound 2] | 22.9 | 0.18 | 4 | 142 | 363 | 
4 | H-K(X1)[Sar]Y[Aib]EGTFTSDYSILLEEQAAREFIEWLLAGGPSK([εLys-εLys-γGlu-C16 diacid])GAPPPS-OH [Compound 14] | 43.6 | 0.38 | 5.5 | 119 | 166 | 
5 | H-K([γGlu-C16 diacid])[Sar]Y[Aib]EGTFTSDYSILLEEQAAREFIEWLLAGGPSK([εLys-εLys-γGlu-C16 diacid])GAPPPS-OH [Compound 12] | 50.8 | 0.46 | 1.3 | 143 | 129 | 
6 | H-K([γGlu-C16 diacid])[Sar]Y[Aib]EGTFTSDYSILLEK([εLys-εLys-γGlu-C18 diacid])QAAREFIEWLLAGGPSSGAPPPS-OH [Compound 16] | 67.6 | 0.73 | 4 | 96 | 117 | 
7 | H-K([γGlu-C18 diacid])[Sar]Y[Aib]EGTFTSDYSILLEEQAAREFIEWLLAGGPSK([εLys-εLys-γGlu-C16 diacid])GAPPPS-OH [Compound 13] | 41.3 | 0.36 | 4.3 | 121 | 137 | 
8 | H-K([γGlu-C18 diacid])[Sar]Y[Aib]EGTFTSDYSILLEEQAAREFIEWLLAGGPSK([εLys-εLys-γGlu-C18 diacid])GAPPPS-OH [Compound 15] | 21.7 | 0.20 | 1.5 | 124 | 127 | 
9 | H-L[N(2-Aminoethyl)Gly]([γGlu-C16 diacid])Y[Aib]EGTFTSDYSILLEEQAAREFIEWLLAGGPSK([AEEA-AEEA-γGlu-C16 diacid])GAPPPS-OH [Compound 5] | 23.4 | 0.25 | 7 | 106 | 74 | 
